The nature of data set [1]: Liver microsomal metabolism stability test, dog. The format is in vitro ADME. The conditions noted are these: for half-life at 1 μM: dog liver microsomes 0.5 mg/mL, compound 1 μM, NADPH/UDPGA; for Remaining rate: dog liver microsomes, 60 min. Here is the method: (§1) The purpose of this experiment was to detect the stability of the example compounds in liver microsomes of rats, dogs and humans.
(§2) • Formulation of working solution of compounds: compound stock solution was added to phosphate buffer to a final concentration of 20 μM.
(§3) Dilution was performed with 100 mM phosphate buffer to a final concentration of 0.625 mg/mL.
(§4) NADPH (reduced nicotinamide adenine dinucleotide phosphate) and UDPGA (uridine diphosphate glucuronic acid) were weighed, 100 mM phosphate buffer was added, and the final concentration was 20 mM.
(§5) 1 mg of Alamethicin was weighed, and 200 μL of DMSO was added to formulate a 5 mg/mL solution. Then dilution was performed with phosphate buffer to a final concentration of 50 μg/mL.
(§6) Stop solution: the stop solution contains 100 ng/mL labetalol hydrochloride and 400 ng/mL tolbutamide and cold acetonitrile as internal standard.
(§7) 400 μL of formulated liver microsomes, 25 μL of compound working solution and 25 μL of Alamethicin were added in sequence to the 96-well plate, and pre-incubated at 37° C. for 10 min. Then 50 μL of formulated NADPH/UDPGA was added to start the reaction and the mixture was incubated at 37° C. The total volume of the reaction system was 500 μL. The final contents of each component are as follows:
(§8) • Instrument: Shimadzu LC-30 AD; • Chromatographic column: XBridge® C18 (50*4.6 mm, 5 μm particle size); • Mobile phase: A: 0.1% formic acid solution, B: methanol Wash gradient: 0.2-1.6 min 5% A to 95% A, 3.0-3.1 min 95% A to 5% A Run time: 4.0 min.
(§9) • Instrument: API5500 liquid chromatography mass spectrometer, AB Sciex; • Ion source: electrospray ionization source (ESI); • Drying gas: N2, temperature 500° C.; • Electrospray voltage: 5000 V; • Detection mode: positive ion detection; • Scanning mode: reaction monitoring (MRM) mode.

Data set [2] can be described thus: Liver microsomal metabolism stability test, rat. The format is in vitro ADME. The following applies: for half-life at 1 μM: rat liver microsomes 0.5 mg/mL, compound 1 μM, NADPH/UDPGA; for Remaining rate: rat liver microsomes, 60 min. As for the experimental part:
as §1, §2, §3, §4, §5, §6, §7, §8, §9

The subject of data set [3] is spontaneously hypertensive rat (SHR) model. Kind of data set: Pharmacodynamic evaluation on blood pressure in spontaneously hypertensive rats. The following applies: P.O, 30 mpk, 1-8 h after administration, P<0.05. It is filed as in vivo. From the text:
This experiment used a spontaneously hypertensive rat (SHR) model to evaluate the pharmacodynamic effect of the test compounds on the blood pressure and heart rate of the model.
Kent Scientific CODA non-invasive blood pressure system.
Spontaneously hypertensive rats (SHR) were provided by Beijing Vital River Laboratory Animal Technology Co., Ltd., male, 150-200 g, 13-15 weeks old, 50 rats.
After animals arrived at the experimental facility, the animals were adapted to the animal facility for 5-7 days. 4.2 After the adaptation period, the animals were adapted to the tail oversleeve restrain for 3 days, and the tail oversleeve restrain was performed twice a day. After the last restrain adaptation, the basal blood pressure was measured, and the animals were randomly divided into groups according to the basal blood pressure. There was no significant difference between the average systolic blood pressure of animals in each group, and the number of animals in each group met the requirements of statistical testing and pharmacodynamic guidelines. 4.3 On the second day after grouping, the animals were administered according to experimental design and grouping (P.O, 5 mL/kg), and the systolic blood pressure (SBP), diastolic blood pressure (DBP), mean arterial pressure (MAP) and heart rate (HR) of the animals were measured before administration and at 1, 2, 4, 6, 8 and 24 h after administration using tail oversleeve method.
Statistical differences between groups were analyzed by Two-way ANOVA test. Among them, P<0.05 indicated a significant difference, and P<0.01 indicated an extremely significant difference.

Data set [4] can be described thus: Liver microsomal metabolism stability test, human. The conditions noted are these: for half-life at 1 μM: human liver microsomes 0.5 mg/mL, compound 1 μM, NADPH/UDPGA; for Remaining rate: human liver microsomes, 60 min. It is filed as in vitro ADME. As for the experimental part:
as §1, §2, §3, §4, §5, §6, §7, §8, §9

Data set [5] addresses T1, CYP450 enzyme subtype 1A2 (Homo sapiens, UniProt P05177).
T1 construct: Human liver microsome incubation system was used; from tissue; host or cells: human liver microsomes
T1 sequence (P05177 1-516): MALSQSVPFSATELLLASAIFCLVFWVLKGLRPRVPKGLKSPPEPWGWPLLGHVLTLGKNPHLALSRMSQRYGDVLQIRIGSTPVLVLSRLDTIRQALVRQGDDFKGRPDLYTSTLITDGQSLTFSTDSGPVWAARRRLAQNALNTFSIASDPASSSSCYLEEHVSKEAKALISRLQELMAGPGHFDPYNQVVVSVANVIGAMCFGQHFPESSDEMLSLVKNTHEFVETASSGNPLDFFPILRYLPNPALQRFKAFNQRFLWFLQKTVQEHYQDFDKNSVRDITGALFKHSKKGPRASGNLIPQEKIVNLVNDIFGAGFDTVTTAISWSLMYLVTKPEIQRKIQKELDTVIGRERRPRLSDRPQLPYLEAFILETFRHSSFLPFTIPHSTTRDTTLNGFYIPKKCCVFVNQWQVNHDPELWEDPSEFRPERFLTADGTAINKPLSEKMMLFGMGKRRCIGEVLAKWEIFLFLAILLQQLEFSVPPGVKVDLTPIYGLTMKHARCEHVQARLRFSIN
The experiment in a line: CYP enzyme single point inhibition test, 1A2. It is filed as in vitro ADME. The conditions noted are these: human liver microsomes, single point method. As for the experimental part: (§10) Human liver microsome incubation system was used, and the single point method was used to quickly predict the inhibition on CYP450 enzyme subtypes (1A2, 2C19, 2D6, 3A4-M, and 3A4-T) by compounds.
(§11) For 2.5 mM NADPH, 4.165 mg of NADPH (reduced nicotinamide adenine dinucleotide phosphate) was weighed and 100 mM phosphate buffer was added to 2 mL. For 0.25 mg/mL microsomes, 50 μL of 20 mg/mL microsomes was added to 4 mL of 100 mM phosphate buffer and mixed evenly.
(§12) The test example compound was weighed, diluted to 10 mM with DMSO, and then diluted to 100 μM with 100 mM phosphate buffer.
(§13) • 1. 40 μL of liver microsomes, 10 μL of substrate, and 10 μL of test compound were added in a 96-well plate and the mixture was pre-incubated for 3 min. • 2. 40 μL of NADPH was added. • 3. At 20 min, 300 μL of acetonitrile stop solution containing internal standard was added. • 4. The mixture was centrifuged and the sample was loaded.

The target in data set [6] is T2, CYP450 enzyme subtype 3A4-T (Homo sapiens, UniProt P08684).
T2 construct: Human liver microsome incubation system was used; from tissue; host or cells: human liver microsomes
The experiment in a line: CYP enzyme single point inhibition test, 3A4-T. It is filed as in vitro ADME. The following applies: human liver microsomes, single point method. As for the experimental part: as §10, §11, §12, §13

The target in data set [7] is T3, CYP450 enzyme subtype 2C19 (Homo sapiens, UniProt P33261).
T3 construct: Human liver microsome incubation system was used; from tissue; host or cells: human liver microsomes
Kind of data set: CYP enzyme single point inhibition test, 2C19. It is filed as in vitro ADME. The conditions noted are these: human liver microsomes, single point method. Here is the method:
as §10, §11, §12, §13

For data set [8], the target named is T4, CYP450 enzyme subtype 2D6 (Homo sapiens, UniProt P10635).
T4 construct: Human liver microsome incubation system was used; from tissue; host or cells: human liver microsomes
The experiment in a line: CYP enzyme single point inhibition test, 2D6. The format is in vitro ADME. The conditions noted are these: human liver microsomes, single point method. Here is the method:
as §10, §11, §12, §13

The target of data set [9] is T5, CYP450 enzyme subtype 3A4-M (Homo sapiens, UniProt P08684).
T5 construct: Human liver microsome incubation system was used; from tissue; host or cells: human liver microsomes
The experiment in a line: CYP enzyme single point inhibition test, 3A4-M. The format is in vitro ADME. The following applies: human liver microsomes, single point method. As for the experimental part: as §10, §11, §12, §13

Data on two molecules can be found in patent US20240368123A1, “AROMATIC RING-CONTAINING BIOLOGICAL ANTAGONIST, AND PREPARATION METHOD THEREFOR AND USE THEREOF” (SHANGHAI HANSOH BIOMEDICAL CO., LTD., priority 2021, published 2024).

T2 sequence (P08684 whole entry): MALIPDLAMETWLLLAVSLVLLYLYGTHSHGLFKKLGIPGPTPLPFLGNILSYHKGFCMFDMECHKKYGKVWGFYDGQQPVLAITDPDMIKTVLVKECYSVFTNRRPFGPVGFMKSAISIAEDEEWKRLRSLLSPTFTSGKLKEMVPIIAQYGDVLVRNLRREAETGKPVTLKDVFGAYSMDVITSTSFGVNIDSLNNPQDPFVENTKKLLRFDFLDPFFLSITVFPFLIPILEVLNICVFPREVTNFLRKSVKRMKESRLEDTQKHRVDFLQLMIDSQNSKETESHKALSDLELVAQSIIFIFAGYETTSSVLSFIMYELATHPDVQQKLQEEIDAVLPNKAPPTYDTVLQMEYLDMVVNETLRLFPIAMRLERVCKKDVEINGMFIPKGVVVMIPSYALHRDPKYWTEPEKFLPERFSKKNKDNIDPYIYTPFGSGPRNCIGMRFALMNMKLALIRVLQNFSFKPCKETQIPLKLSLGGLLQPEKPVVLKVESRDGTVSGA
T5 sequence (P08684 whole entry): as above
T4 sequence (P10635 whole entry): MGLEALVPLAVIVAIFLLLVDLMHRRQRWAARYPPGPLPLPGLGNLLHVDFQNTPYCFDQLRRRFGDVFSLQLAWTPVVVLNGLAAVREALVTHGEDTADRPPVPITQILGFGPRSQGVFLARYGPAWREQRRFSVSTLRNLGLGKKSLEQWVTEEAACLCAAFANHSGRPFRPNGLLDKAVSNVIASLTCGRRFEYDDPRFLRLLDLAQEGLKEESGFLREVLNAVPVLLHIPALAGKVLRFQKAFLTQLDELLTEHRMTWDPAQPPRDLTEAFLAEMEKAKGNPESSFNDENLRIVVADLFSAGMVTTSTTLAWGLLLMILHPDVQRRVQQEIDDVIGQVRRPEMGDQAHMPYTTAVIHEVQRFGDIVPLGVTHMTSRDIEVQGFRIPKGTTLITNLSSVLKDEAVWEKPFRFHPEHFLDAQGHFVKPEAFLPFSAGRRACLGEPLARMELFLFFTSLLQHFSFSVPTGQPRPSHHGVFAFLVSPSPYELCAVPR
T3 sequence (P33261 whole entry): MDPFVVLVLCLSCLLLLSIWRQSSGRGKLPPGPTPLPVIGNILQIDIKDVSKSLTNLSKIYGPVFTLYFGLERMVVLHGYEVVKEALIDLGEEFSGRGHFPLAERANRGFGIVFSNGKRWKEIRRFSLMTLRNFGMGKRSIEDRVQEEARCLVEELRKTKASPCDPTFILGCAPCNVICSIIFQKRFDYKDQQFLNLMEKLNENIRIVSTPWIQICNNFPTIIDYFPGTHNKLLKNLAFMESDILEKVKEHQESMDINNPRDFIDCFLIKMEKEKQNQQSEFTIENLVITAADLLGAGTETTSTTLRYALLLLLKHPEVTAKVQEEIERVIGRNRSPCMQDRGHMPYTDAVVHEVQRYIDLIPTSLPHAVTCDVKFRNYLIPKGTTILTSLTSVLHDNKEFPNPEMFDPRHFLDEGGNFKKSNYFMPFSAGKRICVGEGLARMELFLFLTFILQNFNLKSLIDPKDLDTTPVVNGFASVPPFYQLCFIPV

Consider `[2H]C([2H])(OCC)c1cc(CN2C(=O)C3(CCCC3)N=C2CCCC)ccc1-c1ccccc1S(=O)(=O)Nc1noc(C)c1Cl` [Example 49, 4′-((2-butyl-4-oxo-1,3-diazospiro[4.4]non-1-en-3-yl)methyl)-N-(4-chloro-5-methylisoxazol-3-yl)-2′-(ethoxydeuteriummethyl)-[1,1′-biphenyl]-2-sulfonamide], for which the results for the half-life at 1 μM in data set [1], in data set [2] and in [4] were 29.5 min, 24 min and 26.2 min, respectively. In addition, the Remaining rate is recorded as 23.9% in data set [1], 17.1% in [2] and 30.7% in [4]. Also, in data set [3], the “blood pressure (systolic blood pressure, diastolic blood pressure, mean arterial pressure) compared with the vehicle group” value was “significantly reduced blood pressure”.
`CCCCC1=NC2(CCCC2)C(=O)N1Cc1ccc(-c2ccccc2S(=O)(=O)Nc2noc(C)c2Br)c(COCC)c1` [Example 46, 2-[4-[(2-butyl-4-oxo-1,3-diazaspiro[4.4]non-1-en-3-yl)methyl]-2-(ethoxymethyl)phenyl]-N-(4-bromo-5-methyl-isoxazol-3-yl)benzsulfamide]: the half-maximal inhibitory concentration (IC50) in data set [5] is over 100 µM; in [6], over 100 µM; in data set [7], over 100 µM; in [8] it was over 100 µM; in data set [9] it was 16.7 µM. The half-life at 1 μM in data set [1] was 22.2 min; in data set [2], 24.3 min; in data set [4], 28.9 min. The Remaining rate in data set [1] was found to be 15.4%; in [2], 17.3%; in data set [4] it was 23.8%.
